In assay [1] the test system is ICR mice. Nature of the assay: In vivo gastric ulcer prevention, HCl/ethanol-induced gastric lesion. The following applies: oral, 24 h and 1 h before HCl/ethanol; DMHE 0.87 mg/kg, sucralfate 100 mg/kg. From the text: To investigate the prevention effect of Dendropanax morbifera for gastric ulcer, […] male ICR mice with weight of 20±2 g were used. The mice above were purchased from Damul Science Co. (Daejuen, Korea). Animal experiments conducted in the examples were approved by Chonnam National University animal experiment ethics committee (IRB) (CNU IACUC-YB-R-2012-11).
The above-described animals were divided into 3 groups (for each group, n=7) that comprise normal group (vehicle 0.5% CMC (carboxyl methylcellulose)), positive control group (sucralfate, 100 mg/kg in 0.5% CMC) and experimental group (Dendropanax morbifera leaf hexane extract in 0.5% CMC).
Balanced diet was provided to the animals and they were allowed to drink water freely. One week later, animals were forced to fast for all day long. 24 hours before inducing the […] bleeding, Dendropanax morbifera hexane extract (DMHE, dissolved in 0.5% CMC) was administered with oral dose of 0.87 mg/kg and administered once more 1 hour before HCl/ethanol was applied. It was conducted for the negative (0.5% CMC, 1 mL/kg) and positive control group (sucralfate, 100 mg/kg in 0.5% CMC) simultaneously. By administering HCl/ethanol mixture containing 150 mM HCl in 60% ethanol into stomach, gastric lesion of hemorrhage was induced. […]

In a further assay the test system is HaCaT cells. Nature of the assay: In vitro scratch analysis in HaCaT cells. The class given is cell-based, human. The conditions noted are these: scratch model with 15-PGDH and its coenzyme NAD+. The procedure: For in vitro scratch analysis (Hintermann et al., 2001; Koivisto et al., 2006), HaCaT cells were seeded 3×10^5 cells per well on 6-well plates and cultured until 80% confluence was reached. Then, culture medium was replaced with serum-free medium containing mitomycin (10 μg/mL) and cells were cultured for 2 hours to block the proliferation of wound and washed with PBS. Scratch was made by sterilized 200 μL pipette tip and washed again.
The process of wound healing was observed by taking photographs of identical spots before and after the culture. Experiment was repeated for 3 times and representative photos were illustrated Immediately after the formation of scratch, photos of scratch were taken by microscope (×100) and 48 hours after the culture, photos were taken once more. By measuring the distance between scratch, the % recovery rate by drug was calculated in comparison with the negative control group.
In the meantime, in order to investigate whether PGE2 is directly involved in scratch healing, 15-PGDH and its coenzyme NAD^+ were treated in identical model system.

For assay [2], the system named is ICR mice. Briefly: In vivo wound healing, 5 mm circular wound, H&E tissue staining. The conditions noted are these: TGF-β1 20 ng/day. The procedure: To confirm the wound healing effect of Dendropanax morbifera extract of the present invention in vivo, following experiments were conducted. First, 7 week old male ICR mice (average weight: 25 g) were purchased from Damul Science Co. (Daejuen, Korea) and after a week of adjustment period, they were anesthetized by administering anesthetic (zoletil, 50 μL) into the abdominal cavity and then circular wound with diameter of 5 mm was made under anesthesia. From a day later, being divided into 4 groups, wound of each group was treated with drugs daily basis as below while 10 μL of drugs were applied to wound of each group and the degree of healing was observed by tissue staining Animal experiments conducted in the examples were approved by Chonnam National University animal experiment ethics committee (IRB) (CNU IACUC-YB-R-2012-12) and tissue staining was done by fragmenting the wounded tissue of mice on which the above experiment of 4 groups was conducted and stained with hemtoxylin-Eosin (H & E). The distance of recovered wound was measured by visualizing stained tissues with microscope (40×). Moreover, the wound healing efficiency was calculated based on the distance measured.

Regarding sucralfate, in the assay with ICR mice [1], the “gastric lesion (bleeding, edema)” value is “have not shown any type of lesion”.

With “TGF-β1: transforming growth factor β1, a cytokine; positive control for wound healing”, the “wound healing effect on treatment with 15-PGDH and NAD+” value in the assay on HaCaT cells was “completely vanished”. Further, the distance between wound in the assay with ICR mice [2] (4th day after drug treatment) is 1.72 mm. The “% of healing compared to initial wound diameter (5 mm)” value with ICR mice [2] (4th day) is given as 65.6%.

The record behind these values is patent US9649350B2, “Use for dendropanax morbifera extract for adjusting 15- hydroxyprostaglandin dehydrogenase and PGE 2 activity” (INDUSTRY-ACADEMIC COOPERATION FOUNDATION, CHOSUN UNIVERSITY, priority 2012, dated 2017).
